Experiments:
[1] = tested on: UVB-induced skin tumors in tumor-bearing SKH-1 mice; test: Growth of UVB-induced skin tumors in tumor-bearing SKH-1 mice; format: in vivo, mouse
Procedure: Female SKH-1 mice (7 to 8 weeks old) were treated with 30 mJ/cm^2 of UVB twice a week for 20 weeks. The UVB was stopped for 24 weeks. These tumor-bearing animals were divided into 2 groups (19 mice per group). […] The number (FIG. 1A) and size (FIG. 1B) of the tumors were recorded every 2 weeks.
The radius (r) was determined, and the volume was calculated by: volume=4πr^3/3.
Female SKH-1 mice were treated with 30 mJ/cm^2 of UVB twice a week for 20 weeks and UVB were stopped for 24 weeks. The resulting tumor-bearing animals were divided into 2 groups (19 mice per group). […] The number and size of the tumors were recorded every 2 weeks.

[2] = tested on: prostate tumor cell line PC-3; test: Apoptosis in prostate tumor cell line PC-3; format: cell-based
[3] = tested on: apoptotic sunburn cells in the epidermis of C57/BL/6J p53(−/−) mice; test: UVB-induced apoptotic sunburn cells in C57/BL/6J p53(−/−) mice, topical caffeine; format: in vivo, mouse
Procedure: The time course for apoptosis was determined by utilizing morphologically distinct sunburn cells as the marker for apoptosis. […] Accordingly, studies with a C57/BL/6J mouse were performed with a 60 mJ/cm^2 dose of UVB.
Measurement of apoptotic sunburn cells. Identification of apoptoic sunburn cells was based morphologically on cell shrinkage and nuclear condensation due to fragmentation of the cells. […] The percentage of apoptotic sunburn cells in the epidermis (basal plus suprabasal layers) was calculated from the number of these cells per 100 cells counted from the entire 20 mm length of epidermis for each skin section.

[4] = tested on: apoptotic sunburn cells in the epidermis of FVB mice; test: UVB-induced apoptotic sunburn cells in FVB mice, topical caffeine; format: in vivo, mouse; settings: 1.2 mg (6.2 μmole) in 100 μL acetone immediately, 0.5 and 2 hours after UVB 60 mJ/cm2; 6 hours
Text: Apoptotic sunburn cells were identified by changes in morphology and counted.

[5] = 4% in 100 mg DERMABASE once a day 5 days a week, 8 weeks (FIG. 1)

Row | Structure (SMILES) | reduction in the number of tumors that developed per mouse vs DERMABASE [1, 5] | reduction in tumor volume per mouse vs DERMABASE [1, 5] | number and size of tumors ([1]; 4% in 100 mg DERMABASE, 8 weeks (FIG. 1A, 1B)) | apoptosis in PC-3 ([2]; 0.1, 0.2 or 0.5 mM for 96 hours) | pro-apoptotic effect compared with caffeine ([2]; PC-3, 0.1, 0.2 or 0.5 mM, 96 hours) | enhancement of UVB-induced increase in apoptotic sunburn cells ([3]; female p53(−/−), UVB 60 mJ/cm^2, 6 hours after UVB) | effect on apoptosis in non-UVB-treated epidermis ([3]; male p53(−/−), no UVB) | enhancement of UVB-induced increase of apoptotic sunburn cells [4]
1 | Cn1c(=O)c2c(ncn2C)n(C)c1=O.O=C([O-])c1ccccc1.[Na+] [Caffeine Sodium Benzoate, caffeine sodium benzoate] | 2 fold | ~3 fold | significantly reduced | dose-response relationship on apoptosis | more potent than caffeine at all dose levels tested |  |  | 
2 | Cn1c(=O)c2c(ncn2C)n(C)c1=O [Caffeine, caffeine] |  |  |  |  |  | 563% | no effect | 120-150%

— patent US8029770B2 (Rutgers, The State University, priority 2003, dated 2011)
